Columns and labels:
Human PARP-1 enzyme = molecular target: T1, Human PARP-1 enzyme (Homo sapiens, UniProt P09874); test: In vitro Scintillation Proximity Assay (SPA) for PARP-1 inhibitory activity; type: biochemical; details: read-out: in vitro SPA assay PARP-1 pIC50 (converted)
T1 construct: purchased Trevigen
Protocol: Compounds of the present invention were tested in an in vitro assay based on SPA technology (proprietary to GE healthcare).
In principle, the assay relies upon the well established SPA technology for the detection of poly(ADP-ribosyl)ation of biotinylated target proteins, i.e histones. This ribosylation is induced using nicked DNA activated PARP-1 enzyme and [^3H]-nicotinamide adenine dinucleotide ([^3H]-NAD^+) as ADP-ribosyl donor.
Histones (type II-A, supplier: Sigma) were biotinylated using the biotinylation kit of Amersham and stored aliquoted at −20° C. A stock solution of 100 mg/ml SPA poly(vinyl toluene) (PVT) beads (supplier: Amersham) was made in PBS. A stock solution of 61.6 nM [^3H]-NAD^+ was made by adding [^3H]-NAD^+ (0.1 mCi/ml, supplier: Perkin Elmer) to incubation buffer (50 mM Tris/HCl, pH 8; 0.2 mM DTT; 4 mM MgCl2). A solution of 4 mM NAD^+ (supplier: Sigma) was made. Human PARP-1 enzyme was obtained from Trevigen. Biotinylated histones and PVT-SPA beads were mixed and pre-incubated for 30 min. at room temperature. PARP-1 enzyme (concentration was lot dependent) was mixed with the nicked DNA and the mixture was pre-incubated for 30 min. at 4° C. Equal parts of this histones/PVT-SPA beads solution and PARP-1 enzyme/DNA solution were mixed and 75 μl of this mixture together with 1 μl of compound in DMSO and 25 μl of [^3H]-NAD^+ was added per well into a 96-well microtiterplate. The final concentrations in the incubation mixture were 2 μg/ml for the biotinylated histones, 2 mg/ml for the PVT-SPA beads, 0.25 μg/ml for the nicked DNA and between 0.1-0.2 μg/ml for the PARP-1 enzyme. After incubation of the mixture for 20 min. at room temperature, the reaction was terminated by adding 100 μl of 4 mM NAD^+ in water (final concentration 2 mM) and plates were mixed. The beads were sedimented by centrifugation (10 min, 800 rpm). and plates transferred to a TopCountNXT™ (Packard) for scintillation counting, values were expressed as counts per minute (cpm). For each experiment, controls (containing PARP-1 enzyme and DMSO without compound), a blank incubation (containing DMSO but no PARP-1 enzyme, no DNA or compound) and samples (containing PARP-1 enzyme, DNA and compound dissolved in DMSO) were run in parallel. All compounds tested were dissolved and eventually further diluted in DMSO. A dose-response curve was made wherein the compounds were tested at concentrations between 10^−5M and 3×10^−9M. In each test, the blank value was subtracted from both the control and the sample values. The control sample represented maximal PARP-1 enzyme activity. For each sample, the amount of cpm was expressed as a percentage of the mean cpm value of the controls. When appropriate, IC50-values (concentration of the drug, needed to reduce the PARP-1 enzyme activity to 50% of the control) were computed using linear interpolation between the experimental points just above and below the 50% level. Herein the effects of test compounds are expressed as pIC50 (the negative log value of the IC50-value). As a reference compound, 4-amino-1,8-naphthalimide was included to validate the SPA assay.

TANK-2 enzyme = molecular target: T2, TANK-2 enzyme (Homo sapiens, UniProt Q9H2K2); test: In vitro Scintillation Proximity Assay (SPA) for TANK-2 inhibitory activity; type: biochemical; details: in vitro SPA assay TANK-2 pIC50
T2 construct: made in house
T2 sequence (Q9H2K2 1-1166): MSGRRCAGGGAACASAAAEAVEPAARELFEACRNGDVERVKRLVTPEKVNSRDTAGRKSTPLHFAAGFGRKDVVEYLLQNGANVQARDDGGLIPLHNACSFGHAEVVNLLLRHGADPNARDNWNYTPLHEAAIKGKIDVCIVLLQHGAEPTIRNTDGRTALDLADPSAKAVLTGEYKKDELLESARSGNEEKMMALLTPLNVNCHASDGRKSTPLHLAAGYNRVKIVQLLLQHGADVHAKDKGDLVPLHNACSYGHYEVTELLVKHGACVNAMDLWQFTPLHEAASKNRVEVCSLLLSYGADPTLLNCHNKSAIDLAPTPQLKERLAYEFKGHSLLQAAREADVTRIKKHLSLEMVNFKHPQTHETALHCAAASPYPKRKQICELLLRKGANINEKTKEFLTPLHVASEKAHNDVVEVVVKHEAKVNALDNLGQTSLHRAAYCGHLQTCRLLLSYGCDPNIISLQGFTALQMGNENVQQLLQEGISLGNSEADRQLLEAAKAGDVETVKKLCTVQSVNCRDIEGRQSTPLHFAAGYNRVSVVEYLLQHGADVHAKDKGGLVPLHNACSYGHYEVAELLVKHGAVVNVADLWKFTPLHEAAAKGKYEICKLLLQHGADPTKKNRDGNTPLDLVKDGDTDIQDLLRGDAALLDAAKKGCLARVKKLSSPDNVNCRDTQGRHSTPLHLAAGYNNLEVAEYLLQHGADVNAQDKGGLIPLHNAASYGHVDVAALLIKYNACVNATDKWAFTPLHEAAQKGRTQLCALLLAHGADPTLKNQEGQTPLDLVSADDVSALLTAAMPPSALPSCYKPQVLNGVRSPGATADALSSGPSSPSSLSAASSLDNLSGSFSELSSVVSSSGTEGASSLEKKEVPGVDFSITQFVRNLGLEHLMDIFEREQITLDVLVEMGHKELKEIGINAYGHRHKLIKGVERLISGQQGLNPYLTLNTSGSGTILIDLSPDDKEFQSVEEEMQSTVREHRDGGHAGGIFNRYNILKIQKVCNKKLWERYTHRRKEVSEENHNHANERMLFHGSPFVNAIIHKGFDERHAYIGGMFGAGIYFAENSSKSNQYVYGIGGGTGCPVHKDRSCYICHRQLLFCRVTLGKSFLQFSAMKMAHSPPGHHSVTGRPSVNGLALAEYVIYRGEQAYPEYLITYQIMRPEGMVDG
Protocol: Compounds of the present invention were tested in an in vitro assay based on SPA technology with Ni Flash plates (96 or 384 well). In principle, the assay relies upon SPA technology for the detection of auto-poly(ADP-ribosyl)ation of TANK-2 protein using [^3H]-nicotinamide adenine dinucleotide ([^3H]-NAD^+) as ADP-ribosyl donor.
A stock solution of 100 nM [3H]-NAD^+/NAD (0.1 mCi/ml, supplier: Perkin Elmer) and 0.25 μM NAD (Sigma) was made in assay buffer (60 mM Tris/HCl, pH 7.4; 0.9 mM DTT; 6 mM MgCl2). The TANK-2 enzyme was produced as described in EP1238063. 60 μl of assay buffer, together with 1 μl of compound in DMSO, 20 μl of [^3H]-NAD^+/NAD and 20 μl of TANK-2 enzyme (final concentration 8 μg/ml) was added per well into a 96-well Ni-coated flash plate (Perkin Elmer). After incubation of the mixture for 120 min. at room temperature, the reaction was terminated by adding 60 μl of stopsolution (42.6 mg NAD in 6 ml H2O). The plates were covered with a plate sealer and placed in a TopCountNXT™ (Packard) for scintillation counting. Values were expressed as counts per minute (cpm). For each experiment, controls (containing TANK-2 enzyme and DMSO without compound), a blank incubation (containing DMSO but no TANK-2 enzyme or compound) and samples (containing TANK-2 enzyme and compound dissolved in DMSO) were run in parallel. All compounds tested were dissolved and eventually further diluted in DMSO. In first instance, compounds were tested at a concentration of 10^−5M. […] In each test, the blank value was subtracted from both the control and the sample values. The control sample represented maximal TANK-2 enzyme activity. For each sample, the amount of cpm was expressed as a percentage of the mean cpm value of the controls. When appropriate, IC50-values (concentration of the drug, needed to reduce the TANK-2 enzyme activity to 50% of the control) were computed using linear interpolation between the experimental points just above and below the 50% level. Herein the effects of test compounds are expressed as pIC50 (the negative log value of the IC50-value). As reference compounds, 3-aminobenzamide and 4-amino-1,8-naphtalimide were included to validate the SPA assay. Herein the assay was described using 96-well plates. In the assay using 384-well plates the same final concentrations were used and volumes were adapted.

T1 sequence (P09874 whole entry): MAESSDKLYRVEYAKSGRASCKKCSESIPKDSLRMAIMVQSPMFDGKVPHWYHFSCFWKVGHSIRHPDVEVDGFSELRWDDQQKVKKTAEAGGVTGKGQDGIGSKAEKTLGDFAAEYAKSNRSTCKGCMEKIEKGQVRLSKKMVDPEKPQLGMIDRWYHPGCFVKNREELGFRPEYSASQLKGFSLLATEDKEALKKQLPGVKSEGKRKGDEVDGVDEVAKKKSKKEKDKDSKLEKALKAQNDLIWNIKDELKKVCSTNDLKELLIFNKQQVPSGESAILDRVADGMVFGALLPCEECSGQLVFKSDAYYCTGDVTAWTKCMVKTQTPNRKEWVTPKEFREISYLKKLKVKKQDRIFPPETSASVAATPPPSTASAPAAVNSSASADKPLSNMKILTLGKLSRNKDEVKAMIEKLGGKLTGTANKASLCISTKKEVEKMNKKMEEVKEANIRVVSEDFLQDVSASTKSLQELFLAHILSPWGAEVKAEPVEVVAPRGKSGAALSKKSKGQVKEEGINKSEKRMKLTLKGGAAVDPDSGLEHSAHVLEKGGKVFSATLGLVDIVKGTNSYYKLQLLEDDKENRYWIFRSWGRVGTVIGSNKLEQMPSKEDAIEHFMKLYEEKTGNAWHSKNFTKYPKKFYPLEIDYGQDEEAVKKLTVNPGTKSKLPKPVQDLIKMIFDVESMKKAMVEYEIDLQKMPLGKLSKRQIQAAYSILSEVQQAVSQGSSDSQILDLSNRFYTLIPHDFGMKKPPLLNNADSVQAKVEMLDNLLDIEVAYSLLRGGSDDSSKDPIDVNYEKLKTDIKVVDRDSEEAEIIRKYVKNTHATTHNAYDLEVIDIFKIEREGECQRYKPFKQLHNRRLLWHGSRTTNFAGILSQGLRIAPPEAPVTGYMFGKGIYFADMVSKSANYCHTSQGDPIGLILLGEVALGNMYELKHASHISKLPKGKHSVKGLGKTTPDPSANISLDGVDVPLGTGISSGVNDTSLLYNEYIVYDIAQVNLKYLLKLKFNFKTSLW

For `CCc1cc2ccc(C(C)(C#N)Cc3nc(C#N)cc(OC)n3)cc2[nH]c1=O` (single isomer, unassigned) [Compound 203], the IC50 (Human PARP-1 enzyme) was 50.1 nM, the IC50 (TANK-2 enzyme) was 79.4 nM and the melting point was 179 °C.

— patent publication US8778966B2, “Quinolinone derivatives as PARP and tank inhibitors” (Janssen Pharmaceutica, NV, priority 2007, dated 2014)
